According to US20250388550A1, “SALTS OF AN ANTIOXIDANT AND CRYSTALLINE FORMS THEREOF” (Mironova Labs, Inc., priority 2022, published 2025):

Legend:
[1] = Observation of isolated solid on removal from nitrogen stream; assay type: physicochemical; conditions: upon removal from the nitrogen stream
Method: L-Ergothioneine calcium chloride Material A was obtained by heating a slurry of 173.9 mg of L-Ergothioneine Form A/B in 1 mL of water to 65° C. A faint turbid solution was afforded with the addition of 110.5 mg of calcium chloride to the slurry. The sample was refrigerated for 3 days and became clear. The clear solution was evaporated to dryness under nitrogen.

[2] = Hygroscopicity inferred from TGA weight loss; assay type: physicochemical; conditions: weight loss likely volatilization of moisture
Method: Thermogravimetric (TG) analyses were performed using a Mettler-Toledo TGA/DSC3+ analyzer. Temperature and enthalpy adjustments were performed using indium, tin, and zinc, and then verified with indium. The balance was verified with calcium oxalate. The sample was placed in an aluminum pan. The pan was hermetically sealed, the lid pierced, and the pan was then inserted into the TG furnace. A weighed aluminum pan configured as the sample pan was placed on the reference platform. The furnace was heated under nitrogen. Samples were analyzed from 25° C. to 350° C. at 10° C./min. Thermogravimetric analyses typically experience a period of equilibration at the start of each analysis, indicated by red parentheses on the thermograms. The starting temperature for relevant weight loss calculations is selected at a point beyond this region (typically above 35° C.) for accuracy. DSC analysis on this instrument is less sensitive than on the DSC3+ differential scanning calorimeter. Therefore, in certain embodiments, samples with sufficient solids were analyzed by both instruments and the TGA thermogram from Mettler-Toledo TGA/DSC3+ analyzer is reported below.
The final endotherm with an onset of 234° C. is likely from concomitant melt and decomposition.
Thermal decomposition (FIG. 20), which caused the material to expand out of the pan, was evident above this temperature.

[3] = Slurry interconversion experiments of Forms A and C; assay type: physicochemical; conditions: for Interconversion result (form): EtOH, 75° C.; for Relative thermodynamic stability of the anhydrate forms: Form A versus Form C, at the temperatures evaluated
Method: The choice of solvent affects the kinetics of polymorph conversion and not the thermodynamic relationship between polymorphic forms (Gu, CH., Young, V. Jr., Grant, DJ. J. Pharm. Sci 2001; 90 (11): 1878-1890).
Slurry interconversion experiments in ethanol (at 75° C.) and methanol (at room temperature) were still attempted to confirm the thermodynamic relationship between Forms A and C (Table 18).

[4] = Competitive water activity trituration experiments at room temperature; assay type: physicochemical
Text: Water activity is related to relative humidity in that RH %=aw×100. Therefore, it is possible to directly relate the stability of an anhydrous/hydrate system in slurry experiments to solid state stability.
(§1) The effect of relative humidity (RH) and water activity (aw) on the hydration state of L-Ergothioneine was investigated through both static exposure to different relative humidity (Table 17 and Table 18) and competitive water activity trituration experiments at room temperature (Table 20). The resulting solids were characterized by XRPD. These experiments were used to establish the relative humidity ranges for form stability of the thermodynamically stable anhydrate Form A and Form B Dihydrate. The critical water activity between the anhydrate and the dihydrate falls between 0.76 and 0.85 aw. This range is consistent with the DVS isotherms for both Forms A and C Anhydrate.

[5] = Physical stability assessment at controlled relative humidity, form by XRPD; assay type: physicochemical; conditions: RT, 22 days
Text: Consistent with the DVS result, the critical water activity between the anhydrate and the dihydrate was tentatively determined to fall between 0.76 and 0.85 aw, above which hydration to Form B Dihydrate will occur. This is also consistent with the physical stability assessment at 33, 75, and 95% RH for 22 days; Form A Anhydrate remained Form A below the critical water activity, while hydration to Form B Dihydrate occurred above (Table 16).
as §1

[6] = Trituration of Form C in aqueous methanol below the critical water activity; assay type: physicochemical; conditions: 10:90 water/MeOH, aw 0.29, RT, 5 d
Method: Although the dihydrate of L-Ergothioneine can form in the presence of water, aqueous methanol mixtures were utilized to enhance solubility. To avoid the dihydrate, the aqueous mixtures were prepared below the critical water activity of its formation. Form C was triturated in the aqueous mixtures and monitored for conversion to Form A by XRPD after 5 days (Table 19).

[7] = DVS moisture sorption/desorption isotherm; assay type: physicochemical
Method: Moisture sorption/desorption data were collected on a VTI SGA-100 Vapor Sorption Analyzer. Samples were not dried prior to analysis. Sorption and desorption data were collected over a range from 5% to 95% RH at 10% RH increments under a dry air purge. The equilibrium criterion used for analysis was less than 0.0100% weight change in 5 minutes with a maximum equilibration time of 3 hours with a 2-minute data logging interval. Data were not corrected for the initial moisture content of the samples.

physchem = assay type: physicochemical; conditions: 60 °C, organic solvent or mixture
Method: The approximate solubility of the L-Ergothioneine Form A/B mixture in various solvents was determined (Table 2).

[8] = Text: It cannot be predicted in advance whether a compound exists in one or more solid forms, or whether the properties of the solid form are advantageous for manufacturing and pharmaceutical formulation.

## L-Ergothioneine calcium chloride
[1]
  Deliquescence: appeared to deliquesce

## C[N+](C)(C)C(Cc1c[nH]c(=S)[nH]1)C(=O)O.O=S(=O)([O-])O [L-Ergothioneine Sulfate Form A, L-Ergothioneine sulfate]
[2]
  Hygroscopicity suggested by TGA weight loss: hygroscopic

## C[N+](C)(C)C(Cc1cnc(S)[nH]1)C(=O)[O-] [Forms A and C, L-Ergothioneine]
[3]; 14 days
  Interconversion result (form): A + C
[3]; 28 days
  Interconversion result (form): A + C (minor)
[4]; 15:85 water/MeOH, aw 0.39, RT, 8 d
  Water activity experiment result (form): B + A + C + anotherform
[4]; 20:80 water/MeOH, aw 0.47, RT, 8 d
  Water activity experiment result (form): B + A + C
[4]; 20:80 water/MeOH, aw 0.47, RT, 14 d
  Water activity experiment result (form): A + B
[4]; 70:30 water/MeOH, aw 0.86, RT, 13 d
  Water activity experiment result (form): B (PO)
[4]; solvent, aw and method cells empty, lines below 50:50 water/MeOH, aw 0.76
  Water activity experiment result (form): A + B + anotherform

## C[N+](C)(C)C(Cc1cnc(S)[nH]1)C(=O)[O-] [L-Ergothioneine Form C Anhydrate, L-Ergothioneine]
[5]; 75% RH
  Physical stability, resulting form: Form C
[5]; 95% RH
  Physical stability, resulting form: Form B
[3]; listed as Form C Anhydrate
  Relative thermodynamic stability of the anhydrate forms: thermodynamically metastable relative to Form A
[6]
  Trituration result (form by XRPD): A + C (minor)
[7]; at 5% RH
  Weight loss upon equilibration: 0.3 wt %
[7]; at 95% RH
  Water gain equivalent: more than 1.5 mol/mol
[7]; at 95% RH, equilibrium not achieved
  Weight gain during sorption cycle: more than 10.9 wt %
[7]; from 5 to 85% RH, listed as Form C
  Hygroscopicity (DVS): limited hygroscopicity
[7]; once reaching 5% RH
  Complete desorption, equivalent loss of water: 1 mol/mol
[7]; post-DVS
  Recovered material after DVS by XRPD: mixture of Form C Anhydrate, Form B Dihydrate, and another form
[7]; until reaching 75% RH
  Weight loss on desorption cycle: 5.5 wt %
[7]; up through 85% RH
  Weight gain during sorption cycle: approximately 0.9 wt %

## C[N+](C)(C)C(Cc1cnc(S)[nH]1)C(=O)[O-] [L-Ergothioneine mixture, L-Ergothioneine]
physchem
  solubility: < 2000 µg/mL

## C[N+](C)(C)C(Cc1cnc(S)[nH]1)C(=O)[O-] [L-Ergothioneine Form B Dihydrate, L-Ergothioneine]
[5]; 33% RH
  Physical stability, resulting form: partially dehydrate to a small quantity of both Forms A and C Anhydrates
[5]; 75% RH, listed as Form B Dihydrate
  Physical stability, resulting form: sustained
[5]; 95% RH, listed as Form B Dihydrate
  Physical stability, resulting form: sustained

## C[N+](C)(C)C(Cc1cnc(S)[nH]1)C(=O)[O-] [L-Ergothioneine phosphoric acid]
[2]
  Hygroscopicity suggested by TGA weight loss: hygroscopic
[8]
  Solubility in polar protic solvents: low solubility

## C[N+](C)(C)C(Cc1cnc(S)[nH]1)C(=O)[O-] [L-Ergothioneine Form A Anhydrate, L-Ergothioneine, reference compound]
[3]; listed as Form A
  Relative thermodynamic stability of the anhydrate forms: more thermodynamically stable form
[7]; above 85% RH
  Hygroscopicity (DVS): significant hygroscopicity
[7]; from 5 to 85% RH, listed as Form A
  Hygroscopicity (DVS): low hygroscopicity
